The target in test [1] is T1, NLRP3 (Homo sapiens (Human), UniProt Q96P20). Description: THP-1 cells pyroptosis assay (LPS + nigericin, resazurin read-out). It is filed as cell-based. To be noted: 1 μg/ml LPS, 5 μM nigericin. A digest of the protocol:
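LPS-primed (1 μg/ml) human THP-1 cells in serum-free RPMI were exposed to compound (8-point half-log series, top dose as printed "10M") for 3 h at 37 °C, then to nigericin 5 μM for 1 h. Remaining viability was read by resazurin (100 μM, 1-2 h) fluorescence, and IC50 came from 4-parameter variable-slope regression.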
A general note: The colour change of resazurin is a common sign of viable cells or microbes.

The target in test [2] is T1, NLRP3. The experiment in a line: Human whole blood IL1β release assay (LPS + nigericin). It is filed as cell-based. Here is the method:
For systemic delivery, the ability to inhibit NLRP3 when the compounds are present within the bloodstream is of great importance. For this reason, the NLRP3 inhibitory activity of a number of compounds in human whole blood was investigated in accordance with the following protocol.
Human whole blood in Li-heparin tubes was obtained from healthy donors from a volunteer donor panel. • 1. Plate out 80 μl of whole blood containing 1 μg/ml of LPS in 96-well, clear bottom cell culture plate (Corning #3585) • 2. Add 10 μl compound (8 points half-log dilution with 10 μM top dose) or vehicle (DMSO 0.1% FAC) to the appropriate wells • 3. Incubate for 3 hrs at 37° C., 5% CO2 • 4. Add 10 μl nigericin (Sigma #N7143) ([…]) to all wells • 5. Incubate for 1 hr at 37° C., 5% CO2 • 6. At the end of the incubation period, spin plates at 30×g for 5 mins to pellet cells and remove 20 μl of supernatant and add to 96-well v-bottom plates for IL-1β analysis (note: these plates containing the supernatants can be stored at −80° C. to be analysed at a later date) • 7. IL-1β was measured according to the manufacturer protocol (Perkin Elmer-AlphaLisa IL-Kit A[220F-5000) • 8. IC50 data is fitted to a non-linear regression equation (log inhibitor vs response-variable slope 4-parameters)

Where [3] appears, read: human whole blood, 1 μg/ml LPS, nigericin, IL-1β release, read-out: HWB IC50.

Counter-ions that a name gives are not always drawn.

T1 sequence (Q96P20 whole entry): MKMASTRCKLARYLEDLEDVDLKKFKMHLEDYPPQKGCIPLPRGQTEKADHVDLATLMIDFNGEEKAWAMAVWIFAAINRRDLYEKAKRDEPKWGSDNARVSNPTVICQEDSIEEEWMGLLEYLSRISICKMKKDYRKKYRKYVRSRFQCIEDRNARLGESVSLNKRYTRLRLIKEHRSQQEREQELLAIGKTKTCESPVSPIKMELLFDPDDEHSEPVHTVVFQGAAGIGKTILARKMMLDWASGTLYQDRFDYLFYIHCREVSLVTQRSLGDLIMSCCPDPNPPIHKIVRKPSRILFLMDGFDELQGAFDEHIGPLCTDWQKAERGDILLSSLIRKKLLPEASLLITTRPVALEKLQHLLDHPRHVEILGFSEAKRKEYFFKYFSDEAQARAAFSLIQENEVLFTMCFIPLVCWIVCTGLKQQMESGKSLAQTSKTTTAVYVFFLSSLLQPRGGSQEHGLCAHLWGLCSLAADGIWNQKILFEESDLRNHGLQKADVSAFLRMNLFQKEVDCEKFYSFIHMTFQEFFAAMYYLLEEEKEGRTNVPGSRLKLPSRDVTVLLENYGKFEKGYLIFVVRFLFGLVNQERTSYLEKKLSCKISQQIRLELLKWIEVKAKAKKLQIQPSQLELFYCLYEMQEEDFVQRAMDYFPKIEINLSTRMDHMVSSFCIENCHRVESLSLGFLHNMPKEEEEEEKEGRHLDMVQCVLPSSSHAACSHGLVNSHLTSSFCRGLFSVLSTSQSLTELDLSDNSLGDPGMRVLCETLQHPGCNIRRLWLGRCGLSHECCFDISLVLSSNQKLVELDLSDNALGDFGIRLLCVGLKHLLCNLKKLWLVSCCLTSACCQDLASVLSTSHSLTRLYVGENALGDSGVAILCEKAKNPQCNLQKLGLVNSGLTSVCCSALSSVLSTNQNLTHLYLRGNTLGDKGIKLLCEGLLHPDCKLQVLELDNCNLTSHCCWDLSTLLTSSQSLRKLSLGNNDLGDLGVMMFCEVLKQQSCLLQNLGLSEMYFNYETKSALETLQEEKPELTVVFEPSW

The IC50 is the concentration that gives 50% inhibition. Turning to `C#CCN1CCC(S(=O)(=O)NC(=O)Nc2c3c(cc4c2CCC4)CCC3)CC1` [Example 2, N-((1,2,3,5,6,7-Hexahydro-s-indacen-4-yl)carbamoyl)-1-(prop-2-yn-1-yl)piperidine-4-sulfonamide, potassium salt], the IC50 at NLRP3 [1] and on NLRP3 [2] (setting [3]) was 1000 to 10000 nM each time. For `O=C(Nc1c2c(cc3c1CCC3)CCC2)NS(=O)(=O)C1CCNCC1` [Example 4, N-((1,2,3,5,6,7-Hexahydro-s-indacen-4-yl)carbamoyl)-piperidine-4-sulfonamide, potassium salt], the IC50 on NLRP3 [1] and on NLRP3 [2] (setting [3]) was 1000 to 10000 nM in each case. In the case of `CC(C)NC(=O)N1CCC(S(=O)(=O)NC(=O)Nc2c3c(cc4c2CCC4)CCC3)CC1` [Example 5, 4-(N-((1,2,3,5,6,7-Hexahydro-s-indacen-4-yl)carbamoyl)sulfamoyl)-N-isopropylpiperidine-1-carboxamide, potassium salt], the IC50 at NLRP3 [1] was < 1000 nM; on NLRP3 [2] (setting [3]), 1000 to 10000 nM. Taken in the same sequence, the figures for `O=C(Nc1c2c(cc3c1CCC3)CCC2)NS(=O)(=O)C1CCN(C(=O)C2CC2)CC1` [Example 7, 1-(Cyclopropanecarbonyl)-N-((1,2,3,5,6,7-hexahydro-s-indacen-4-yl)carbamoyl)piperidine-4-sulfonamide, potassium salt] were < 1000 nM and 1000 to 10000 nM. For `O=C(Nc1c2c(cc3c1CCC3)CCC2)NS(=O)(=O)C1CCN(C(=O)C(F)(F)F)CC1` [Example 8, N-((1,2,3,5,6,7-Hexahydro-s-indacen-4-yl)carbamoyl)-1-(2,2,2-trifluoroacetyl)piperidine-4-sulfonamide, potassium salt] the same measures were 1000 to 10000 nM and < 1000 nM. Taken in the same sequence, the figures for `COC(=O)N1CCC(S(=O)(=O)NC(=O)Nc2c3c(cc4c2CCC4)CCC3)CC1` [Example 13, Methyl 4-(N-((1,2,3,5,6,7-hexahydro-s-indacen-4-yl)carbamoyl)sulfamoyl)piperidine-1-carboxylate, potassium salt] were < 1000 nM and > 10000 nM. For `CCN1CC(N2CCC(S(=O)(=O)NC(=O)Nc3c4c(cc5c3CCC5)CCC4)CC2)C1` [Example 24, 1-(1-Ethylazetidin-3-yl)-N-((1,2,3,5,6,7-hexahydro-s-indacen-4-yl)carbamoyl)piperidine-4-sulfonamide, potassium salt], the IC50 at NLRP3 [1] and on NLRP3 [2] (setting [3]) was < 1000 nM throughout.

On to `CCC(=O)N1CCCC(S(=O)(=O)NC(=O)Nc2c3c(cc4c2CCC4)CCC3)C1` (stereo not drawn) [Example 32, N-((1,2,3,5,6,7-Hexahydro-s-indacen-4-yl)carbamoyl)-1-propionylpiperidine-3-sulfonamide, potassium salt], for which the IC50 at NLRP3 [1] and at NLRP3 [2] (setting [3]) was 1000 to 10000 nM throughout. Turning to `O=C(Nc1c2c(cc3c1CCC3)CCC2)NS(=O)(=O)C1CCCN(CCF)C1` (stereo not drawn) [Example 34, 1-(2-Fluoroethyl)-N-((1,2,3,5,6,7-hexahydro-s-indacen-4-yl)carbamoyl)piperidine-3-sulfonamide, potassium salt], the IC50 on NLRP3 [1] is < 1000 nM; on NLRP3 [2] (setting [3]) it was 1000 to 10000 nM. Taken in the same sequence, the figures for `O=C(Nc1c2c(cc3c1CCC3)CCC2)NS(=O)(=O)C1CNc2ccccc2C1` (stereo not drawn) [Example 35, N-((1,2,3,5,6,7-Hexahydro-s-indacen-4-yl)carbamoyl)-1,2,3,4-tetrahydroquinoline-3-sulfonamide, potassium salt] were < 1000 nM and > 10000 nM. `O=C(Nc1c2c(cc3c1CCC3)CCC2)NS(=O)(=O)C1CCN(C2CC2)C1` (stereo not drawn) [Example 39, 1-Cyclopropyl-N-((1,2,3,5,6,7-hexahydro-s-indacen-4-yl)carbamoyl)pyrrolidine-3-sulfonamide, potassium salt]: the values for the IC50 at NLRP3 [1] and on NLRP3 [2] (setting [3]) were < 1000 nM and 1000 to 10000 nM, respectively.

For `CN1CC(S(=O)(=O)NC(=O)Nc2c3c(cc4c2CCC4)CCC3)C1` [Example 49, N-((1,2,3,5,6,7-Hexahydro-s-indacen-4-yl)carbamoyl)-1-methylazetidine-3-sulfonamide, potassium salt], the IC50 at NLRP3 [1] and at NLRP3 [2] (setting [3]) was < 1000 nM throughout. For `CCN1CC(S(=O)(=O)NC(=O)Nc2c3c(cc4c2CCC4)CCC3)C1` [Example 53, 1-Ethyl-N-((1,2,3,5,6,7-hexahydro-s-indacen-4-yl)carbamoyl) azetidine-3-sulfonamide, potassium salt], the IC50 on NLRP3 [1] and at NLRP3 [2] (setting [3]) was < 1000 nM each time. As to `CCC(CC)N1CC(S(=O)(=O)NC(=O)Nc2c3c(cc4c2CCC4)CCC3)C1` [Example 65, N-((1,2,3,5,6,7-Hexahydro-s-indacen-4-yl)carbamoyl)-1-(pentan-3-yl)azetidine-3-sulfonamide, potassium salt], the IC50 on NLRP3 [1] and on NLRP3 [2] (setting [3]) was < 1000 nM in each case.

`O=C(Nc1c2c(cc3c1CCC3)CCC2)NS(=O)(=O)C1CN(C(=O)OCc2ccccc2)C1` [Example 71, Benzyl 3-(N-((1,2,3,5,6,7-hexahydro-s-indacen-4-yl)carbamoyl)sulfamoyl)azetidine-1-carboxylate, potassium salt]: the IC50 on NLRP3 [1] is < 1000 nM; on NLRP3 [2] (setting [3]) it was > 10000 nM.

For `O=C(Nc1c2c(cc3c1CCC3)CCC2)NS(=O)(=O)C1CN(C2CCOCC2)C1` [Example 75, N-((1,2,3,5,6,7-Hexahydro-s-indacen-4-yl)carbamoyl)-1-(tetrahydro-2H-pyran-4-yl)azetidine-3-sulfonamide, potassium salt], the IC50 on NLRP3 [1] and on NLRP3 [2] (setting [3]) was < 1000 nM throughout.

On to `O=C(Nc1c2c(cc3c1CCC3)CCC2)NS(=O)(=O)C1CN(Cc2cccnc2)C1` [Example 90, N-((1,2,3,5,6,7-Hexahydro-s-indacen-4-yl)carbamoyl)-1-(pyridin-3-ylmethyl)azetidine-3-sulfonamide, potassium salt], for which the IC50 on NLRP3 [1] and on NLRP3 [2] (setting [3]) was < 1000 nM each time. With `O=C(Nc1c2c(cc3c1CCC3)CCC2)NS(=O)(=O)C1CN(CCCl)C1` [Example 92, 1-(2-Chloroethyl)-N-((1,2,3,5,6,7-hexahydro-s-indacen-4-yl)carbamoyl)azetidine-3-sulfonamide, potassium salt], the IC50 at NLRP3 [2] was in the range of 1000 to 10000 nM. For `[N-]=[N+]=NCCN1CC(S(=O)(=O)NC(=O)Nc2c3c(cc4c2CCC4)CCC3)C1` [Example 95, 1-(2-Azidoethyl)-N-((1,2,3,5,6,7-hexahydro-s-indacen-4-yl)carbamoyl)azetidine-3-sulfonamide, potassium salt], on NLRP3 [2] (setting [3]), the IC50 lay within 1000 to 10000 nM. In the case of `O=C(Nc1c2c(cc3c1CCC3)CCC2)NS(=O)(=O)C1CN(CC(F)(F)F)C1` [Example 96, N-((1,2,3,5,6,7-Hexahydro-s-indacen-4-yl)carbamoyl)-1-(2,2,2-trifluoroethyl)azetidine-3-sulfonamide, potassium salt], the IC50 on NLRP3 [1] is < 1000 nM; at NLRP3 [2] (setting [3]), 1000 to 10000 nM. For `CC(C)CN1CC(S(=O)(=O)NC(=O)Nc2c3c(cc4c2CCC4)CCC3)C1` [Example 97, N-((1,2,3,5,6,7-Hexahydro-s-indacen-4-yl)carbamoyl)-1-isobutylazetidine-3-sulfonamide, potassium salt] the same measures were < 1000 nM and < 1000 nM. Taken in the same sequence, the figures for `O=C(Nc1c2c(cc3c1CCC3)CCC2)NS(=O)(=O)C1CN(CC2COC2)C1` [Example 101, N-((1,2,3,5,6,7-Hexahydro-s-indacen-4-yl)carbamoyl)-1-(oxetan-3-ylmethyl)azetidine-3-sulfonamide, potassium salt] were < 1000 nM and < 1000 nM. Taken in the same sequence, the figures for `O=C(Nc1c2c(cc3c1CCC3)CCC2)NS(=O)(=O)C1CN(Cc2ccncc2)C1` [Example 103, N-((1,2,3,5,6,7-Hexahydro-s-indacen-4-yl)carbamoyl)-1-(pyridin-4-ylmethyl)azetidine-3-sulfonamide, potassium salt] were < 1000 nM and 1000 to 10000 nM.

`O=C(Nc1c2c(cc3c1CCC3)CCC2)NS(=O)(=O)C1CN(Cc2cccnc2Br)C1` [Example 105, 1-((2-Bromopyridin-3-yl)methyl)-N-((1,2,3,5,6,7-hexahydro-s-indacen-4-yl)carbamoyl)azetidine-3-sulfonamide, potassium salt]: the IC50 at NLRP3 [1] was < 1000 nM; at NLRP3 [2] (setting [3]), > 10000 nM. With `O=C(Nc1c2c(cc3c1CCC3)CCC2)NS(=O)(=O)C1CN(Cc2cncnc2)C1` [Example 125, N-((1,2,3,5,6,7-Hexahydro-s-indacen-4-yl)carbamoyl)-1-(pyrimidin-S-ylmethyl)azetidine-3-sulfonamide, potassium salt], the IC50 at NLRP3 [2] (setting [3]) lay in the range of 1000 to 10000 nM.

Consider `CCN1CCC(S(=O)(=O)NC(=O)Nc2c3c(cc4c2CCC4)CC=C3)CC1` [Example 189, 1-Ethyl-N-((1,2,3,7-tetrahydro-s-indacen-4-yl)carbamoyl) piperidine-4-sulfonamide, potassium salt], for which the IC50 on NLRP3 [2] (setting [3]) lay within 1000 to 10000 nM.

(Values after patent US20250115591A1, “NOVEL SULFONAMIDE CARBOXAMIDE COMPOUNDS” (INFLAZOME LIMITED, priority 2017, published 2025).)
